Laboratory results published in patent US20200368315A1, “ANTIMICROBIAL PEPTIDES AND ADMIXTURES THEREOF SHOWING ANTIMICROBIAL ACTIVITY AGAINST GRAM-NEGATIVE PATHOGENS” (priority 2017, published 2020).
Values after ≈ are worked out from the molar mass of the structure shown. Values joined by “and” are separate entries in the source; they are usually repeats but may differ in a detail not shown here. Equal values may be shown once. Read-outs that look alike come from different tables or passages of the source.

Columns and labels:
[1] = system: E. aerogenes LMG 02094; assay: microbe, parasite or virus in culture; format: cell-based, Enterobacter aerogenes; conditions: for MIC: Klebsiella aerogenes
In short: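 Broth microdilution in Mueller Hinton Broth, run in duplicate, with 2-fold serial compound dilutions and a final inoculum of 5*10^5 CFU/mL. Strains were precultured in LB at 37° C. MIC is the lowest concentration inhibiting visible growth.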

[2] = system: A. baumannii LMG01041
In short: (§1)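 Chequerboard broth microdilution in MHB of two agents in combination, final volume 100 uL, with growth and sterility controls. MICs alone and in combination give FICI = MICac/MICa + MICbc/MICb; synergy FICI≤0.5, additive 0.5–1, indifferent 1–2, antagonism >2.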

[3] = system: E. aerogenes LMG 02094
In short: as §1

[4] = system: E. coli LMG15862
In short: as §1

[5] = system: K. pneumoniae LMG20218
In short: as §1

[6] = system: P. aeruginosa LMG 6395
In short: as §1

[7] = system: Acinetobacter baumannii ATCC BAA-1605; assay: microbe, parasite or virus in culture; conditions: for MIC: Acinetobacter baumannii
Method: (§2) Testing was performed according to CLSI (Clinical Laboratory Standards Institute) guidelines. Read out of the study was determination of MIC—minimal inhibitory concentration expressed in μg/mL.
(§3) Out of these PBS solutions, 76.8 μL was transferred to 1423.2 μL of MH media in deep well for testing compound alone. […] Out of these working solutions 100 μL were transferred to wells in the third column of 96-well assay plates. Assay plates were previously filled with 50 μL of MH media in all wells except for the wells in the third column.
(§4) Microorganisms used were all revived from skim milk storage at −70° C. by plating them on MH agar plates. The following day a single colony of each microorganism was again streaked on fresh agar plates. The next day, using direct colony suspension method, broth solutions that achieve turbidity equivalent to 0.5 McFarland standard for each microorganism were prepared. […] Out of these suspensions, actual inoculums were prepared by diluting them 100× with MH media giving final microorganism count of 2-8×10^5 CFU/mL. For each strain of microorganisms, 20 mL of these inoculum solutions were prepared. From the second to the twelfth column of 96-well plates, 50 μL of these solutions were transferred per well. To the first column, 50 μL per well of pure growth media was added. In this manner the first column was used as sterility control of media used, the second column was used as control of microorganism's growth and the rest of the plate was used for MIC determination. All plates were incubated for 16-24 h at 37° C.
(§5) MIC value was determined by visual inspection of bacterial growth within 96-well plates. The first column in which there was no visible growth of bacteria was determined as MIC value for peptide or combination tested in that particular row.

[8] = system: Acinetobacter baumannii B2026, clinical isolate; assay: microbe, parasite or virus in culture; conditions: for MIC: Acinetobacter baumannii
Method: as §2, §3, §4, §5

[9] = system: Escherichia coli ATCC BAA-2452; assay: microbe, parasite or virus in culture; conditions: for MIC: Escherichia coli
Method: as §2, §3, §4, §5

[10] = system: Escherichia coli B1927, clinical isolate; assay: microbe, parasite or virus in culture; conditions: for MIC: Escherichia coli
Method: as §2, §3, §4, §5

[11] = system: Klebsiella pneumoniae ATCC BAA-2524; assay: microbe, parasite or virus in culture; conditions: for MIC: Klebsiella pneumoniae
Method: as §2, §3, §4, §5

[12] = system: Klebsiella pneumoniae B1945, clinical isolate; assay: microbe, parasite or virus in culture; conditions: for MIC: Klebsiella pneumoniae
Method: as §2, §3, §4, §5

[13] = system: Pseudomonas aeruginosa ATCC BAA-2108; assay: microbe, parasite or virus in culture; conditions: for MIC: Pseudomonas aeruginosa
Method: as §2, §3, §4, §5

[14] = system: Pseudomonas aeruginosa B1954, clinical isolate; assay: microbe, parasite or virus in culture; conditions: for MIC: Pseudomonas aeruginosa
Method: as §2, §3, §4, §5

[15] = system: human red blood cells (HRBc); assay: Hemolytic test
Method: Fresh human red blood cells (HRBc) were used for the hemolytic tests. After incubation with different concentrations of test compounds at 37° C. for 1 hour, the absorbance of the supernatant were measured.

[16] = system: Gram-negative pathogens; format: cell-based; conditions: alone; over the 5 Gram-negative pathogens
Method: Escherichia coli, Klebsiella pneumoniae, Pseudomonas aeruginosa, Acinetobacter baumannii, Enterobacter aerogenes were grown in Luria-Bertani (LB) broth shaken (200 rpm) or on LB agar at 37° C. […] MICs tests were performed in duplicate by a liquid growth inhibition microdilution assays in sterilized polypropylene microtiter plates according to Wiegand and […] [27]. […] The suspension was diluted in a ratio of 1:100 using Mueller Hinton Broth (MHB) and the final inoculum is 5*10^5 CFU/mL. […] The antimicrobials were diluted serially by 1/2 one by one and 50 uL diluted bacterial suspension were added to each well to make the final volume to be 100 uL. Growth control was accomplished by remove 10 uL from well 11 and dilute 1000 times to plate 1/10 suspension on the solid medium. […] The number of colonies on the control agar plate should be around 50 to ensure the concentration of the inoculum and the effectiveness of the experiment. The lowest concentration of the antimicrobials that inhibits visible growth of the indicator is identified as MIC.

Structure (SMILES): CC[C@@H](C)[C@@H](NC(=O)[C@@H](CCCNC(=N)N)NC(=O)[C@@H](CCCNC(=N)N)NC(=O)[C@@H](Cc1ccccc1)NC(=O)[C@@H](CC(C)C)NC(=O)[C@@H](CCCNC(=N)N)NC(=O)[C@H](N)CCCNC(=N)N)C(=O)N[C@H](CC(C)C)C(=O)N[C@H](CCCNC(=N)N)C(=O)N[C@H](Cc1c[nH]c2ccccc12)C(=O)N[C@H](CC(C)C)C(N)=O [GNP-D6]
- MIC value ([1]; alone, E. aerogenes LMG 02094): 2 µM (≈ 3.17 µg/mL)
- FICI ([2]; vancomycin + GNP): 0.5 and 0.625
- FICI ([3]; vancomycin + GNP): 0.667
- FICI ([4]; vancomycin + GNP): 0.75 and 0.5
- FICI ([5]; vancomycin + GNP): 0.75 and 0.5
- FICI ([6]; vancomycin + GNP): 0.75
- MIC value ([7]; alone, MDR A. baumannii ATCC BAA-1605): 5.05 µM
- MIC value ([8]; alone, A. baumannii B2026, colistin resistant): 2.53 µM
- MIC value ([9]; alone, MDR E. coli ATCC BAA-2452): 1.27 µM
- MIC value ([10]; alone, MDR E. coli B1927): 1.27 µM
- MIC value ([11]; alone, MDR K. pneumoniae ATCC BAA-2524): 2.53 µM
- MIC value ([12]; alone, MDR K. pneumoniae B1945): 5.05 µM
- MIC value ([13]; alone, MDR P. aeruginosa ATCC BAA-2108): 5.05 µM
- MIC value ([14]; alone, MDR P. aeruginosa B1954): 2.53 µM
- HC50 ([15]; HRBc, 37° C., 1 hour): 168.9 µM
- HC50 relative to the working concentration ([15]; working concentration 2 μM): 80 fold
- MIC / concentration needed to inhibit growth [16]: 2 µM (≈ 3.17 µg/mL)

Structure (SMILES): CN[C@H](CC(C)C)C(=O)N[C@H]1C(=O)N[C@@H](CC(N)=O)C(=O)N[C@H]2C(=O)N[C@H]3C(=O)N[C@H](C(=O)N[C@H](C(=O)O)c4cc(O)cc(O)c4-c4cc3ccc4O)[C@H](O)c3ccc(c(Cl)c3)Oc3cc2cc(c3O[C@@H]2O[C@H](CO)[C@@H](O)[C@H](O)[C@H]2O[C@H]2C[C@](C)(N)[C@H](O)[C@H](C)O2)Oc2ccc(cc2Cl)[C@H]1O [Vancomycin, reference compound]
- MIC ([1]; LMG02094, read-out: MIC value): 192 µM (≈ 278 µg/mL)
- MIC ([1]; LMG02094, read-out: MIC value of antimicrobial compounds alone): 192 µM (≈ 278 µg/mL)
- MICa ([2]; MIC of vancomycin alone): 32 µM
- MICa ([3]; MIC of vancomycin alone): 192 µM
- MICa ([4]; MIC of vancomycin alone): 64 µM
- MICa ([5]; MIC of vancomycin alone): 128 µM
- MICa ([6]; MIC of vancomycin alone): 128 µM
- MIC ([7]; ATCCBAA1605): 64 µg/mL
- MIC ([7]; ATCCBAA1605, read-out: MIC value): 44.2 µM
- MIC [8]: 32 µg/mL
- MIC ([8]; read-out: MIC value): 22.1 µM
- MIC ([9]; ATCCBAA2452): > 128 µg/mL
- MIC ([9]; ATCCBAA2452, read-out: MIC value): > 88.3 µM
- MIC [10]: 128 µg/mL
- MIC ([10]; read-out: MIC value): 88.3 µM
- MIC ([11]; ATCCBAA2524): > 128 µg/mL
- MIC ([11]; ATCCBAA2524, read-out: MIC value): > 88.3 µM
- MIC [12]: > 128 µg/mL
- MIC ([12]; read-out: MIC value): > 88.3 µM
- MIC ([13]; ATCCBAA2108): > 128 µg/mL
- MIC ([13]; ATCCBAA2108, read-out: MIC value): > 88.3 µM
- MIC [14]: 128 µg/mL
- MIC ([14]; read-out: MIC value): 88.3 µM
- Hemolysis in the HRBc ([15]; even at 500 μM): did not induce hemolysis
- HC50 (hemolytic activity) ([15]; human red blood cells, 37° C., 1 hour): >500 µM
- MIC / concentration needed to inhibit growth [16]: at least 32 μM
